PubChem BioAssay (NCI)
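Following 48 hours of exposure in 96-well plates, responses at five concentrations were used to interpolate endpoints linearly. Definition used: TGI = concentration required for complete inhibition of growth.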

What was measured:
Assay in all cases: growth of human tumour cells (NCI), 48 h
EKVX NSCLC = system: EKVX NSCLC
UACC-62 melanoma = system: UACC-62 melanoma
HCT-116 colon = system: HCT-116 colon
SNB-75 CNS = system: SNB-75 CNS
SNB-78 CNS = system: SNB-78 CNS
NCI-H23 lung = system: NCI-H23 lung
SNB-19 CNS = system: SNB-19 CNS
UO-31 renal = system: UO-31 renal
HOP-62 NSCLC = system: HOP-62 NSCLC
RXF 393 renal = system: RXF 393 renal
A549 NSCLC = system: A549 NSCLC
MOLT-4 leukemia = system: MOLT-4 leukemia
LOX IMVI melanoma = system: LOX IMVI melanoma
DLD-1 colon = system: DLD-1 colon
U251 CNS = system: U251 CNS
CAKI-1 renal = system: CAKI-1 renal
TK-10 renal = system: TK-10 renal
KM20L2 colon = system: KM20L2 colon
CCRF-CEM leukemia = system: CCRF-CEM leukemia
HCC-2998 colon = system: HCC-2998 colon
KM12 colon = system: KM12 colon
SR leukemia = system: SR leukemia
786-0 renal = system: 786-0 renal
RXF-631 renal = system: RXF-631 renal
OVCAR-3 ovarian = system: OVCAR-3 ovarian
HOP-18 NSCLC = system: HOP-18 NSCLC
SN12C renal = system: SN12C renal
IGROV1 ovarian = system: IGROV1 ovarian
OVCAR-5 ovarian = system: OVCAR-5 ovarian
OVCAR-8 ovarian = system: OVCAR-8 ovarian
OVCAR-4 ovarian = system: OVCAR-4 ovarian
XF 498 CNS = system: XF 498 CNS
SF-295 CNS = system: SF-295 CNS
NCI-H460 lung = system: NCI-H460 lung
HL-60(TB) leukemia = system: HL-60(TB) leukemia
SK-MEL-5 melanoma = system: SK-MEL-5 melanoma
LXFL 529 NSCLC = system: LXFL 529 NSCLC
A498 renal = system: A498 renal
K-562 leukemia = system: K-562 leukemia
SW-620 colon = system: SW-620 colon
DMS 273 small cell lung = system: DMS 273 small cell lung
MALME-3M melanoma = system: MALME-3M melanoma
M14 melanoma = system: M14 melanoma
SK-MEL-2 melanoma = system: SK-MEL-2 melanoma
HT29 colon = system: HT29 colon
SF-268 CNS = system: SF-268 CNS
NCI-H522 lung = system: NCI-H522 lung
SK-MEL-28 melanoma = system: SK-MEL-28 melanoma
UACC-257 melanoma = system: UACC-257 melanoma
ACHN renal = system: ACHN renal
COLO 205 colon = system: COLO 205 colon
NCI-H226 lung = system: NCI-H226 lung
SK-OV-3 ovarian = system: SK-OV-3 ovarian
DMS 114 small cell lung = system: DMS 114 small cell lung
RPMI-8226 leukemia = system: RPMI-8226 leukemia
M19-MEL melanoma = system: M19-MEL melanoma
SF-539 CNS = system: SF-539 CNS

Question: How did the TGI (EKVX NSCLC) turn out when `Cc1ccc(/C=C/C(=O)c2ccc(Cl)c(Cl)c2)cc1` was run?
Answer: > 100 µM

Question: And the TGI (UACC-62 melanoma)?
Answer: > 100 µM

Question: What about the TGI (HCT-116 colon) of the same compound?
Answer: > 100 µM

Question: What about the TGI (SNB-75 CNS) of the same compound?
Answer: > 100 µM

Question: And the TGI (SNB-78 CNS)?
Answer: > 100 µM

Question: What about the TGI (NCI-H23 lung) of the same compound?
Answer: > 100 µM

Question: And the TGI (SNB-19 CNS)?
Answer: > 100 µM

Question: And the TGI (UO-31 renal)?
Answer: > 100 µM

Question: And the TGI (HOP-62 NSCLC)?
Answer: > 100 µM

Question: What about the TGI (RXF 393 renal) of the same compound?
Answer: > 100 µM

Question: What about the TGI (A549 NSCLC) of the same compound?
Answer: > 100 µM

Question: And the TGI (MOLT-4 leukemia)?
Answer: > 100 µM

Question: What about the TGI (LOX IMVI melanoma) of the same compound?
Answer: > 100 µM

Question: What about the TGI (DLD-1 colon) of the same compound?
Answer: > 100 µM

Question: What about the TGI (U251 CNS) of the same compound?
Answer: > 100 µM

Question: And the TGI (CAKI-1 renal)?
Answer: > 100 µM

Question: And the TGI (TK-10 renal)?
Answer: > 100 µM

Question: What about the TGI (KM20L2 colon) of the same compound?
Answer: > 100 µM

Question: And the TGI (CCRF-CEM leukemia)?
Answer: > 100 µM

Question: What about the TGI (HCC-2998 colon) of the same compound?
Answer: > 100 µM

Question: What about the TGI (KM12 colon) of the same compound?
Answer: > 100 µM

Question: What about the TGI (SR leukemia) of the same compound?
Answer: > 100 µM

Question: What about the TGI (786-0 renal) of the same compound?
Answer: > 100 µM

Question: And the TGI (RXF-631 renal)?
Answer: > 100 µM

Question: And the TGI (OVCAR-3 ovarian)?
Answer: > 100 µM

Question: And the TGI (HOP-18 NSCLC)?
Answer: > 100 µM

Question: And the TGI (SN12C renal)?
Answer: > 100 µM

Question: And the TGI (IGROV1 ovarian)?
Answer: > 100 µM

Question: What about the TGI (OVCAR-5 ovarian) of the same compound?
Answer: > 100 µM

Question: And the TGI (OVCAR-8 ovarian)?
Answer: > 100 µM

Question: What about the TGI (OVCAR-4 ovarian) of the same compound?
Answer: > 100 µM

Question: What about the TGI (XF 498 CNS) of the same compound?
Answer: > 100 µM

Question: And the TGI (SF-295 CNS)?
Answer: > 100 µM

Question: What about the TGI (NCI-H460 lung) of the same compound?
Answer: > 100 µM

Question: What about the TGI (HL-60(TB) leukemia) of the same compound?
Answer: > 100 µM

Question: What about the TGI (SK-MEL-5 melanoma) of the same compound?
Answer: > 100 µM

Question: And the TGI (LXFL 529 NSCLC)?
Answer: > 100 µM

Question: What about the TGI (A498 renal) of the same compound?
Answer: > 100 µM

Question: What about the TGI (K-562 leukemia) of the same compound?
Answer: > 100 µM

Question: And the TGI (SW-620 colon)?
Answer: > 100 µM

Question: And the TGI (DMS 273 small cell lung)?
Answer: > 100 µM

Question: And the TGI (MALME-3M melanoma)?
Answer: > 100 µM

Question: What about the TGI (M14 melanoma) of the same compound?
Answer: > 100 µM

Question: What about the TGI (SK-MEL-2 melanoma) of the same compound?
Answer: > 100 µM

Question: What about the TGI (HT29 colon) of the same compound?
Answer: > 100 µM

Question: What about the TGI (SF-268 CNS) of the same compound?
Answer: > 100 µM

Question: What about the TGI (NCI-H522 lung) of the same compound?
Answer: > 100 µM

Question: What about the TGI (SK-MEL-28 melanoma) of the same compound?
Answer: > 100 µM

Question: And the TGI (UACC-257 melanoma)?
Answer: > 100 µM

Question: And the TGI (ACHN renal)?
Answer: > 100 µM

Question: And the TGI (COLO 205 colon)?
Answer: > 100 µM

Question: And the TGI (NCI-H226 lung)?
Answer: > 100 µM

Question: What does the source list for `COc1ccc(CC(=O)NCCc2ccc(OC)c(OC)c2OC)cc1`?
Answer: TGI (EKVX NSCLC): > 100 µM; TGI (HCT-116 colon): > 100 µM; TGI (SNB-75 CNS): > 100 µM; TGI (SNB-78 CNS): > 100 µM; TGI (NCI-H23 lung): > 100 µM; TGI (SNB-19 CNS): > 100 µM; TGI (UO-31 renal): > 100 µM; TGI (HOP-62 NSCLC): > 100 µM; TGI (RXF 393 renal): > 100 µM; TGI (A549 NSCLC): > 100 µM; TGI (MOLT-4 leukemia): > 100 µM; TGI (DLD-1 colon): > 100 µM; TGI (U251 CNS): > 100 µM; TGI (TK-10 renal): > 100 µM; TGI (SK-OV-3 ovarian): > 100 µM; TGI (KM20L2 colon): > 100 µM; TGI (CCRF-CEM leukemia): > 100 µM; TGI (HCC-2998 colon): > 100 µM; TGI (KM12 colon): > 100 µM; TGI (SR leukemia): > 100 µM; TGI (786-0 renal): > 100 µM; TGI (RXF-631 renal): > 100 µM; TGI (DMS 114 small cell lung): > 100 µM; TGI (HOP-18 NSCLC): > 100 µM; TGI (SN12C renal): > 100 µM; TGI (RPMI-8226 leukemia): > 100 µM; TGI (IGROV1 ovarian): > 100 µM; TGI (OVCAR-5 ovarian): > 100 µM; TGI (OVCAR-8 ovarian): > 100 µM; TGI (XF 498 CNS): > 100 µM; TGI (SF-295 CNS): > 100 µM; TGI (NCI-H460 lung): > 100 µM; TGI (SK-MEL-5 melanoma): > 100 µM; TGI (LXFL 529 NSCLC): > 100 µM; TGI (A498 renal): > 100 µM; TGI (K-562 leukemia): > 100 µM; TGI (SW-620 colon): > 100 µM; TGI (MALME-3M melanoma): > 100 µM; TGI (M19-MEL melanoma): > 100 µM; TGI (M14 melanoma): > 100 µM; TGI (SK-MEL-2 melanoma): > 100 µM; TGI (HT29 colon): > 100 µM; TGI (SF-268 CNS): > 100 µM; TGI (NCI-H522 lung): > 100 µM; TGI (SK-MEL-28 melanoma): > 100 µM; TGI (UACC-257 melanoma): > 100 µM; TGI (ACHN renal): > 100 µM; TGI (SF-539 CNS): 36.7 µM; TGI (NCI-H226 lung): > 100 µM
